In paper PMC6199744, “Development of Chemical Proteomics for the Folateome and Analysis of the Kinetoplastid Folateome” (ACS Infectious Diseases, 2018):
Like-named read-outs stand apart in the source and are kept apart here.

Legend:
Assay type in all cases: binding
[1] = molecular target: T1, HeLa cell extract proteins (Homo sapiens, UniProt O95848)
T1 construct: endogenous in cells; host or cells: HeLa cell extract
T1 sequence (O95848 1-222): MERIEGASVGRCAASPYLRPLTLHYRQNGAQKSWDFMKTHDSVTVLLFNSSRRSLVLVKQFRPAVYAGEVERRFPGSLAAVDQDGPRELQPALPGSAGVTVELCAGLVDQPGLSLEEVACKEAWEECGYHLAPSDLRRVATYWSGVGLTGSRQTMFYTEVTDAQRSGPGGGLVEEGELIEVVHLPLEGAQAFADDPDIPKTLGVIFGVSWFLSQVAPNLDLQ

[2] = molecular target: T2, HeLa cell extract proteins (Homo sapiens, UniProt P14373)
T2 construct: endogenous in cells; host or cells: HeLa cell extract
T2 sequence (P14373 1-513): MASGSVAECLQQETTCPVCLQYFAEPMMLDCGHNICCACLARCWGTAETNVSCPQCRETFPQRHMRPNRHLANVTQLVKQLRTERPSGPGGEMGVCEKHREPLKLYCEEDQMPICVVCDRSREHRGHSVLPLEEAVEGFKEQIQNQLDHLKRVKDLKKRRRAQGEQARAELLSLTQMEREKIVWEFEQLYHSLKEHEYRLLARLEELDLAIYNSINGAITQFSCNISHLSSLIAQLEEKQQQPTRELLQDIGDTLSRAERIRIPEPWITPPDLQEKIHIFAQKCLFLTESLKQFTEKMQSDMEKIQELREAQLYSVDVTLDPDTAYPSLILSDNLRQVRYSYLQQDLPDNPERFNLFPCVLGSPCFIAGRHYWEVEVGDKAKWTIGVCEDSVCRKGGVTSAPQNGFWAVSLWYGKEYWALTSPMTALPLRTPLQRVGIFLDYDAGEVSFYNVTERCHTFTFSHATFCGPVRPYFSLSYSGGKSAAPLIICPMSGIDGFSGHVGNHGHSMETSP

[3] = molecular target: T3, HeLa cell extract proteins (Homo sapiens, UniProt P52298)
T3 construct: endogenous in cells; host or cells: HeLa cell extract
T3 sequence (P52298 1-156): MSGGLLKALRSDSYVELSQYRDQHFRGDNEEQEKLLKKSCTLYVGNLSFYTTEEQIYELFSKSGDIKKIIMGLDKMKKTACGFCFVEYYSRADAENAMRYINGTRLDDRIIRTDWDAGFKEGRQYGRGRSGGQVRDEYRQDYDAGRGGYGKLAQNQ

[4] = molecular target: T4, HeLa cell extract proteins (Homo sapiens, UniProt P53597)
T4 construct: endogenous in cells; host or cells: HeLa cell extract
T4 sequence (P53597 41-346): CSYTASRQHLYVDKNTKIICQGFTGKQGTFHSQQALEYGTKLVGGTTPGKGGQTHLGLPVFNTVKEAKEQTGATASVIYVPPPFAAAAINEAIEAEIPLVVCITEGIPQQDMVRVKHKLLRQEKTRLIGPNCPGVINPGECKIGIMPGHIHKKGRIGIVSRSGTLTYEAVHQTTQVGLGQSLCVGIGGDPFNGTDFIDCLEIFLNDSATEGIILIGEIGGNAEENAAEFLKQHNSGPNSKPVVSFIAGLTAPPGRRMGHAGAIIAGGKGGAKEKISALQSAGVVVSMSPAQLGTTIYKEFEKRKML

[5] = molecular target: T5, HeLa cell extract proteins (Homo sapiens, UniProt Q9BTT0)
T5 construct: endogenous in cells; host or cells: HeLa cell extract
T5 sequence (Q9BTT0 whole entry): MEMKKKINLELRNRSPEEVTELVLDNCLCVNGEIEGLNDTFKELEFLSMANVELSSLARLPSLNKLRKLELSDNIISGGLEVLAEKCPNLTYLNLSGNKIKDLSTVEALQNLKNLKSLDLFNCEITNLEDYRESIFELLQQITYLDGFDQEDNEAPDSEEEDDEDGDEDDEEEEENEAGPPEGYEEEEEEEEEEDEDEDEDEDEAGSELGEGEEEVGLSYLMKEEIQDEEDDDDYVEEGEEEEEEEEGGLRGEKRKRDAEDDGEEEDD

[6] = molecular target: T6, HeLa cell extract proteins (Homo sapiens, UniProt Q9H9T3)
T6 construct: endogenous in cells; host or cells: HeLa cell extract
T6 sequence (Q9H9T3 1-547): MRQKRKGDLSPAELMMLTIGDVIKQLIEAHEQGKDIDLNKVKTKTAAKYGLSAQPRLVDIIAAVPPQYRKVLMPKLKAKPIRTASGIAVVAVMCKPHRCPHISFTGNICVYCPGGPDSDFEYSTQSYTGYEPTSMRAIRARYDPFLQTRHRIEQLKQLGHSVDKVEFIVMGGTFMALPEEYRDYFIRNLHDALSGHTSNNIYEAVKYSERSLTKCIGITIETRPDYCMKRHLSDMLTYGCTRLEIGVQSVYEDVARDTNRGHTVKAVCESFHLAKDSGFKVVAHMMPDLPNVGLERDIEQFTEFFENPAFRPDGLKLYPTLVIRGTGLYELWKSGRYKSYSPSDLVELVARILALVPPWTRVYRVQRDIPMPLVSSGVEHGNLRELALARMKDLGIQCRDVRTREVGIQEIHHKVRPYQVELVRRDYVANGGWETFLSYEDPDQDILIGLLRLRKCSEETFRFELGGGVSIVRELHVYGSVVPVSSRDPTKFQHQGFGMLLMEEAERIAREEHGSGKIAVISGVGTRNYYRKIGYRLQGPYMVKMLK

[7] = molecular target: T7, HeLa cell extract proteins (Homo sapiens, UniProt P60953); details: protein CDC42; HeLa
T7 construct: endogenous in cells; host or cells: HeLa cell extract
T7 sequence (P60953 whole entry): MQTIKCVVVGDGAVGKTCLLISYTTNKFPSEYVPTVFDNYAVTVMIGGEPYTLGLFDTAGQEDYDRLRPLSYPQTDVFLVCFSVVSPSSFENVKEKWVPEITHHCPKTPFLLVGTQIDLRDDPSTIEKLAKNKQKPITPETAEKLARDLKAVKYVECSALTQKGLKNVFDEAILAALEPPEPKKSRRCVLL

[8] = molecular target: T8, HeLa cell extract proteins (Homo sapiens, UniProt Q00653); details: protein NFKB2; HeLa
T8 construct: endogenous in cells; host or cells: HeLa cell extract
T8 sequence (Q00653 1-900): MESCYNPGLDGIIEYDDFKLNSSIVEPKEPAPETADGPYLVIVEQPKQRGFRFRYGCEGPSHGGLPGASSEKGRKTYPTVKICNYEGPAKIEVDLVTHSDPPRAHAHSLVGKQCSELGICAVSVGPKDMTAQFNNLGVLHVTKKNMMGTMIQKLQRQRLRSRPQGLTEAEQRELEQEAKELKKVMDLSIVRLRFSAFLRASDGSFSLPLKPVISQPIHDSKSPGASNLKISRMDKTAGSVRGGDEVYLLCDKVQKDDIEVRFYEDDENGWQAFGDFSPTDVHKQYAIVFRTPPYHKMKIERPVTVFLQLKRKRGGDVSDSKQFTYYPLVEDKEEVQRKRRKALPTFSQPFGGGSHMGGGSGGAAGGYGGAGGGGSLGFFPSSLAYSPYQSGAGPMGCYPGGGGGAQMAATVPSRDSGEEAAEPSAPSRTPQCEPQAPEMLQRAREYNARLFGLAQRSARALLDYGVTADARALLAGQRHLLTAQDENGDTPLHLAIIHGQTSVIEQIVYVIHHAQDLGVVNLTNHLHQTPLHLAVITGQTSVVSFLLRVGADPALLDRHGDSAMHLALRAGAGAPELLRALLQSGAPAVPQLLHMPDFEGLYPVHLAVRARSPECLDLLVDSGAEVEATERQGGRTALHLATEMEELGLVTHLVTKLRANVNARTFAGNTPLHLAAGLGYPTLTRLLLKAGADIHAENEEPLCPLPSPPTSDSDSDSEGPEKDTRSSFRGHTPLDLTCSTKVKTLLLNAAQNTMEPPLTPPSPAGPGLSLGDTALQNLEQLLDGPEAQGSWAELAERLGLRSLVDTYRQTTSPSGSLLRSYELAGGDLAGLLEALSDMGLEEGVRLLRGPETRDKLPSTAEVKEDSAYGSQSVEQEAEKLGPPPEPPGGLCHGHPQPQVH

[9] = molecular target: T9, HeLa cell extract proteins (Homo sapiens, UniProt Q8TEQ6); details: protein GEMIN5; HeLa
T9 construct: endogenous in cells; host or cells: HeLa cell extract
T9 sequence (Q8TEQ6 whole entry): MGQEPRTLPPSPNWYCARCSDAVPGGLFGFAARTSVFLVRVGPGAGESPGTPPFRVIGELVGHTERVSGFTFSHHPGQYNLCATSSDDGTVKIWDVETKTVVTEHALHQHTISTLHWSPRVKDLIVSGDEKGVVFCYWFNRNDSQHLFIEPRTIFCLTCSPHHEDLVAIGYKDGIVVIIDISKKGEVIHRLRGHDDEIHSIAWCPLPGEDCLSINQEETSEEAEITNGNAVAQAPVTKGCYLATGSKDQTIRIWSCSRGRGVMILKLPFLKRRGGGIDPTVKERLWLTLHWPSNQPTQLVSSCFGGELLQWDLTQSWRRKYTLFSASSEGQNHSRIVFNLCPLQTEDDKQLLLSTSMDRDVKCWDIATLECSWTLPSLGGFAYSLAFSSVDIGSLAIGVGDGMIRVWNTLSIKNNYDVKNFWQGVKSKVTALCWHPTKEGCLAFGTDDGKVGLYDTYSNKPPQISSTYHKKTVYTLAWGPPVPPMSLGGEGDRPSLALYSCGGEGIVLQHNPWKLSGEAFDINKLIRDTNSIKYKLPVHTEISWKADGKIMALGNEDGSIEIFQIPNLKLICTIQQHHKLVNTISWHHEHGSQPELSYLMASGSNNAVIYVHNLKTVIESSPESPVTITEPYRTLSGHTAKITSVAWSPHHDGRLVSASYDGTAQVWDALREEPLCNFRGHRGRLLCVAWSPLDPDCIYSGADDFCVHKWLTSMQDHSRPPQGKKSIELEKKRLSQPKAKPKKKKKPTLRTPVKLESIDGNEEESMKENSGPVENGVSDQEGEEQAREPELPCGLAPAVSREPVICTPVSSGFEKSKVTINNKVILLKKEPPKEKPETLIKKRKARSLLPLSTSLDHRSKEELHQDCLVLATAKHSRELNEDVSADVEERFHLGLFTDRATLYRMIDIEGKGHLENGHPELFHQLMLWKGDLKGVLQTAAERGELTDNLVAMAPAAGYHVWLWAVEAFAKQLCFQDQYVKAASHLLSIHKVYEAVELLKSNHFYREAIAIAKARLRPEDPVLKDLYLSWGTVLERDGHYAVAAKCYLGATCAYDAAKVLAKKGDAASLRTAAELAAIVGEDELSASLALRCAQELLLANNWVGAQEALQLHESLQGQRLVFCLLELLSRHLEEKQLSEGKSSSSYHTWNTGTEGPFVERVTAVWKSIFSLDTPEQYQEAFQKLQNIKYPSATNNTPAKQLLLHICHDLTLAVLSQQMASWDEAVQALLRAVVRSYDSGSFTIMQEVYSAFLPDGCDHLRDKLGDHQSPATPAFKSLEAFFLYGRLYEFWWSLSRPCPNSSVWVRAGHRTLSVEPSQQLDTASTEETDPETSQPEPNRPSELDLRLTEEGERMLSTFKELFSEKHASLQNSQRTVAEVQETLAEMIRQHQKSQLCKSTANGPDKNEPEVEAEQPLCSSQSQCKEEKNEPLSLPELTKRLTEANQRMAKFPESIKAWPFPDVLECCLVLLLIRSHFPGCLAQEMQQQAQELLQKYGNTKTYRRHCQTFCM

[10] = HeLa, protein NCBP2 (NUCLEAR CAP-BINDING PROTEIN SUBUNIT 2)

Compound	fold changes relative to vehicle control ([1]; protein NUDT14, HeLa)	fold changes relative to vehicle control ([2]; HeLa, captured protein TRIM27)	fold changes relative to vehicle control [3, 10]	fold changes relative to vehicle control ([4]; protein SUCLG1, HeLa)	fold changes relative to vehicle control ([5]; HeLa, protein ANP32E)	fold changes relative to vehicle control ([6]; protein ELP3, HeLa)	fold changes relative to vehicle control [7]	fold changes relative to vehicle control [8]	fold changes relative to vehicle control [9]	also measured
Nc1nc2c(c(=O)[nH]1)N(C=O)C(CNc1ccc(C(=O)N[C@@H](CCC(=O)O)C(=O)O)cc1)CN2 (stereo partly drawn) [LEU, leucovorin]	1.01	0.97	1.05	0.95	0.89	0.88	–	–	–	–
Nc1nc2[nH]cc(CCc3ccc(C(=O)N[C@@H](CCC(=O)O)C(=O)O)cc3)c2c(=O)[nH]1 [PTX, pemetrexed]	–	–	–	–	–	–	–	–	–	fold changes relative to vehicle control [1]: 0.49; fold changes relative to vehicle control [2]: 0.87; fold changes relative to vehicle control [3]: 0.91; fold changes relative to vehicle control [4]: 1.09; fold changes relative to vehicle control [5]: 0.76; fold changes relative to vehicle control [6]: 0.72
CCCCCCOc1ccc(Cc2cnc(N)nc2N)cc1 [compound 1]	–	–	–	–	–	–	1.11	0.9	0.99	–
CCCCCCOc1cccc(Cc2cnc(N)nc2N)c1 [compound 2]	–	–	–	–	–	–	1.45	1.24	1.12	–
Nc1nc2cccc(-c3ccccc3)c2n1Cc1ccc(Cl)c(Cl)c1 [compound 3]	–	–	–	–	–	–	0.99	0.9	1.61	–
NCCOCCOCC(=O)Nc1nc2ncc(CNc3ccc(C(=O)NC(CCC(=O)O)C(=O)O)cc3)nc2c(=O)[nH]1 (stereo not drawn) [compound 6]	0.8	0.89	0.91	1.3	0.91	0.91	–	–	–	–
NCCCNc1ccc(C(=O)NC(CCC(=O)O)C(=O)O)cc1 (stereo not drawn) [compound 7]	0.97	1.01	0.95	0.81	0.72	0.9	–	–	–	–
